Columns and labels:
[1] = Stability of S-59 in InterSol PAS under ambient light (HPLC); type: physicochemical; settings: S-59 230 μM in InterSol PAS, room temp
Method: Initial studies evaluated stability of the pathogen inactivation compound amotosalen (S-59) that was formulated in a platelet additive solution (PAS). A 230 μM solution of psoralen compound S-59 (Irsch et al., Transfus Med Hemother, 38: 19-31 (2011)) was prepared in the commercially available PAS solution InterSol® (Fenwal Inc.) and maintained at room temperature under ambient light conditions. HPLC analysis was performed on samples at times listed in Table 1 for both S-59 and photoproducts. […] S-59 data are shown as both concentration (μM), as well as peak area (S-59 UV) for relative comparison to any photoproducts detected with HPLC (Table 1). Peak D and Peak E photoproducts also were observed by 22 hr and 72 hr, respectively, as well as process impurity decomposition product 4′-HMT, with peak area values indicated (Table 1).

[2] = Stability of S-59 in InterSol PAS protected from ambient light (HPLC); type: physicochemical; settings: S-59 230 μM in InterSol PAS, room temp, protected from light
Method: Additional studies evaluated stability of the S-59 (amotosalen) pathogen inactivation compound formulated in a platelet additive solution (PAS), but protected from ambient light exposure. A 230 μM solution of S-59 was prepared in the commercially available PAS solution InterSol® (Fenwal Inc.) and maintained at room temperature protected from ambient light conditions. HPLC analysis was performed on samples at times listed in Table 2 for both S-59 and photoproducts.

- 4′-HMT UV peak area (HPLC) ([1]; 5 hr): 5.624
- 4′-HMT UV peak area (HPLC) ([1]; 6 hr): 5.090
- 4′-HMT UV peak area (HPLC) ([1]; 22 hr): 5.125
- 4′-HMT UV peak area (HPLC) ([1]; 30 hr): 5.334
- 4′-HMT UV peak area (HPLC) ([1]; 47 hr): 4.954
- 4′-HMT UV peak area (HPLC) ([1]; 56 hr): 4.742
- 4′-HMT UV peak area (HPLC) ([1]; 72 hr): 4.839
- 4′-HMT UV peak area (HPLC) ([1]; 78 hr): 4.793
- 4′-HMT UV peak area (HPLC) ([1]; T 0): 4.924
- 4′-HMT UV peak area (HPLC) ([2]; 5.5 hr): 3.7162
- 4′-HMT UV peak area (HPLC) ([2]; 21.5 hr): 4.3525
- 4′-HMT UV peak area (HPLC) ([2]; 28.5 hr): 3.8628
- 4′-HMT UV peak area (HPLC) ([2]; 44 hr): 4.0199
- 4′-HMT UV peak area (HPLC) ([2]; 45.5 hr): 4.4036
- 4′-HMT UV peak area (HPLC) ([2]; 53 hr): 4.0582
- 4′-HMT UV peak area (HPLC) ([2]; 77 hr): 4.4268
- 4′-HMT UV peak area (HPLC) ([2]; T 0): 3.8849
Compound: Cc1oc2c(C)c3oc(=O)cc(C)c3cc2c1CO [4′-HMT]
